The text below walks through data of patent US11883398B2, “Dipeptidylpeptidase 4 inhibition enhances lymphocyte trafficking, improving both naturally occurring tumor immunity and immunotherapy” (INSTITUT PASTEUR, priority 2015, dated 2024).

For one assay, the system named is CT26 colon carcinoma. Description: Subcutaneous CT26 colon carcinoma tumor growth in vivo. Further details: species or system mouse. The protocol: Mice used were 7-12 weeks old. […] B16F10 and […] (Ovalbumin-expressing B16F10 cells, gift from C. Reis e Sousa) tumor cells were cultured in DMEM (Gibco) supplemented with 10% FCS (PAA), 0.1 mM non-essential amino acids, 1 mM sodium pyruvate, 10 mM Hepes, 70 μM beta-mercaptoethanol and 23 μg/ml gentamycin (all from Gibco). CT26 colon carcinoma cells were cultured in RPMI (Gibco) supplemented as described for DMEM. Cells for injections were passaged 1-2 times after thawing, before use. WT and genetically modified mice were subcutaneously injected with 2×10^5 B16 or 5×10^5 CT26 cells in the shaved right flank. […] For blocking of chemokine and chemokine receptors, WT mice were intraperitoneally injected with 100 μg of hamster a-mCXCR3 (clone CXCR3-173, BioLegend), 100 μg of hamster α-mCCR5 (clone HM-CCR5, BioLegend), 50 μg of rat anti-mCXCL10 (clone 134013, R&D systems) and 20 μg of rat-α-mCXCR4 (clone 2B11/CXCR4, BD Biosciences) or with respective isotype antibodies (hamster IgG (clone HTK888, BioLegend, used as control for mCXCR3 and mCCR5 blockage); rat IgG2a (clone 54447, R&D systems, used as control for mCXCL10 blockade) and rat IgG2b (clone A95-1, BD Biosciences, used as control for mCXCR4 blockade). […] Tumor height and width were measured with a caliper and tumor volume was calculated (Elliptical volume=width^2×height×0.523). […]

Another assay relates to mCXCL10. Nature of the assay: Chemokine quantification in B16F10 tumor homogenates (ELISA/Luminex). The assay is classed as in vivo, mouse. How it is done:
Soluble extracts were collected after centrifugation of tumor homogenates.
For detection of mCXCL10(1-77), MAXISORP PLATES® (Nunc) were coated with 4 μg/ml of α-mCXCL10 capturing antibody (MAB466, R&D) in PBS and incubated over night at 4° C. Plates were washed twice with 300 μL of PBS. […] Tumor and plasma samples were diluted in BSA 1% and incubated for 2h, at room temperature.
On the technique in general: An ELISA detects its analyte on a solid surface through an enzyme-linked reagent.

Assay [1] has as its system M04 (B16F10 transfected with OVA). Description: B16-OVA (M04) tumor growth with OT1 adoptive T cell transfer. Format: in vivo, mouse. How it is done:
B16F10 and M04 (Ovalbumin-expressing B16F10 cells, gift from C. Reis e Sousa) tumor cells were cultured in DMEM (Gibco) supplemented with 10% FCS (PAA), 0.1 mM non-essential amino acids, 1 mM sodium pyruvate, 10 mM Hepes, 70 μM beta-mercaptoethanol and 23 μg/ml gentamycin (all from Gibco). CT26 colon carcinoma cells were cultured in RPMI (Gibco) supplemented as described for DMEM. Cells for injections were passaged 1-2 times after thawing, before use. WT and genetically modified mice were subcutaneously injected with 2×10^5 B16 or 5×10^5 CT26 cells in the shaved right flank. When indicated, mice received an intra-tumoral injection of 1 μg of recombinant mCXCL10, 5 μg CpG-A in DOPTAP or vehicle control. […] Tumor height and width were measured with a caliper and tumor volume was calculated (Elliptical volume=width^2×height×0.523). […] 15 days after tumor cell injection, lungs were dissected, placed in Fekete's solution and metastatic foci were counted. […]

Entries after “also recorded” stand apart in the source; their conditions may differ.

`N[C@@H](CC(=O)N1CCn2c(nnc2C(F)(F)F)C1)Cc1cc(F)c(F)cc1F` [sitagliptin]: in the assay on CT26 colon carcinoma (BALB/c mice, sitagliptin vs control chow), the CT26 tumor growth result was “marked delay of CT26 tumor growth; also recorded: delayed CT26 growth”. Moreover, the “CT26 tumor growth with CXCR3 blocking antibodies” value in the assay with CT26 colon carcinoma (anti-CXCR3 antibody, sitagliptin vs control) was “loss of protection”. In the assay with mCXCL10 (B16F10 tumors, sitagliptin-treated vs control mice), the “tumor associated mCXCL10 concentration” value is given as “elevated concentrations”. Further, the “full-length mCXCL10(1-77) among total mCXCL10 in tumor” value in the assay on mCXCL10 (after intra-tumoral CpG-A, sitagliptin vs control) is reported as “protected the full-length form of the molecule”. The “intra-tumoral expression of mCCL2 and mCCL22 after CpG-A” value in the assay with mCXCL10 (control vs sitagliptin treated animals) is recorded as “no significant differences”. The “reduction in tumor size” value in assay [1] (B16-OVA tumors, day 15) is listed as around 50%. Further, in assay [1] (monotherapies vs control), the B16-OVA tumor growth entry is “significant delay”.
